For one assay, the system named is large crabgrass. Briefly: greenhouse-grown crabgrass treated with non-insulated CO2 prototype, visual percent control. Format: in vivo. The following applies: for % control: 2 lbs CO2; for percent control: 2-3 tiller greenhouse-grown, seven days after treatment (FIG. 2). How it is done:
(§1) Greenhouse-grown crabgrass plants were treated with the prototype containing either an 8002 flat fan nozzle (which was measured to release 2 pounds of CO2 per minute) or with an 8004 flat fan nozzle (which releases 4 pounds of CO2 per minute), to determine if the rate of application affects the percent control achieved. Control means killing or death of the plants as determined by visual observation. The percent control is a visual rating of the treated plant compared to an untreated control plant. In other words, it is the percent of plant death. Trials were conducted in triplicate.
Similarly, treatment for 15 seconds with the 2 lb/min nozzle results in 17 percent control with 0.5 pounds of CO2 dispensed, while treatment with the 4 lb/min nozzle for 5 seconds results in 12 percent control with 0.3 pounds of CO2 dispensed. From this study, it was concluded that for crabgrass, the total amount (dose) of CO2 applied correlates with % control. See FIG. 4, which graphs % control vs. CO2 dose with two different application rates.
In the data presented in FIG. 3, the crabgrass plants are larger. They are at the 3-4 tiller stage, whereas the plants in the data presented in FIG. 2 were 2-3 tiller plants. The CO2 application controlled both plant sizes well, and with the larger plants the same trend of percent control corresponding to the total pounds of CO2 applied was observed. In both cases the LD50 is over 1 pound CO2/plant.
(§2) Most commercial herbicides achieve 80% control or better. The prototype used 2 pounds of CO2 to achieve this level of control for one 6″ plant. At the 2 lb/plant dispensing rate, a commercial 25-lb cylinder of CO2 would only treat 10 plants; clearly efficiency increases were needed to create a viable backpack sprayer system. An insulating cone was attached around the nozzle with the expectation of possibly achieving a modest increase in efficiency, perhaps cutting the CO2 requirement by 20-50%.

For the next assay, the system named is crabgrass. Briefly: field-grown crabgrass treated with CO2 prototype with insulating cone, percent control. To be noted: for % control: insulated prototype, 0.15 lbs CO2. Format: in vivo. How it is done:
as §1, §2
Unexpectedly, a greater than ten-fold reduction in the CO2 usage was achieved (Table 1). The results are especially remarkable since field-grown plants (treated with the insulated design) are usually harder to kill than greenhouse-grown plants that were treated with the non-insulated design.

With `O=C=O` [CO2, carbon dioxide], the “% control” value with large crabgrass (2-3 tiller greenhouse, non-insulated prototype) is recorded as 75%; in the assay with large crabgrass (3-4 tiller greenhouse, non-insulated prototype), 87%; with crabgrass (2-3 tiller field), 80+ %; in the assay on crabgrass (2-3 tiller field, listed as carbon dioxide), not below 80%; in the assay on crabgrass (3-4 tiller field), 80+ %; with crabgrass (3-4 tiller field, listed as carbon dioxide) it was not below 80%. The LD50 entry with large crabgrass (2-3 tiller plants, non-insulated prototype) was “over 1 pound CO2/plant”; in the assay on large crabgrass (3-4 tiller plants, non-insulated prototype), “over 1 pound CO2/plant”. In addition, the percent control in the assay with large crabgrass (2 lb/min nozzle, 15 seconds, 0.5 pounds of CO2 dispensed) came to 17%; in the assay with large crabgrass (2 lb/min nozzle, 30 seconds, one pound of CO2 dispensed), 40%; in the assay on large crabgrass (4 lb/min nozzle, 5 seconds, 0.3 pounds of CO2 dispensed), 12%; in the assay with large crabgrass (4 lb/min nozzle, 15 seconds, one pound of CO2 dispensed) it was 42%. Also, the “amount of CO2 used to achieve 80% control or better” value in the assay with large crabgrass (non-insulated prototype, one 6″ plant) is 2 pounds. For the same compound, the figures for the “LD50 (lethal dose to 50% of plants)” value in the assay with large crabgrass (without insulated cone) and with crabgrass (with insulated cone) were 2 pounds of CO2 per plant and “less than 0.2 lbs/CO2 per plant”, respectively.

These data come from US8927459B2, “Vegetation treatment” (Arctic, Inc., priority 2008, dated 2015).
